From US20230265456A1, “GENE THERAPY VECTOR EXPRESSING CYP27A1 FOR THE TREATMENT OF CEREBROTENDINOUS XANTHOMATOSIS” (FUNDACION PARA LA INVESTIGACION MEDICA APLICADA, priority 2020, published 2023)
“Also recorded” adds a separate entry of the source.

Columns and labels:
Assay type in all cases: in vivo, mouse
[1] = system: CTX mice; test: Hepatomegaly: relative liver weight as percentage of body weight; conditions: 0.5% diet, 3 months
Description: FIG. 11. AAV8-EAAT-CYP27A1 reverses hepatomegaly in CTX mice. The AAV8-EAAT-CYP27A1 vector was administered intravenously to 7 week-old CTX mice at the indicated doses. CDCA was mixed in mouse chow at 0.1 or 0.5%. Untreated CTX and WT littermates were included as a reference. Mice were maintained for 3 months and then they were sacrificed for determination of relative liver weight, represented as percentage of body weight. *p<0.05; ***p<0.001 versus untreated CTX mice. Kruskal-Wallis with Dunn's post-test.
Activation of the xenobiotic response pathways produces hepatomegaly in CTX mice (Repa J J, et al. J. Biol. Chem. 2000; 275:39685-39692).

[2] = system: Cyp27a1; test: Endogenous Cyp27a1 mRNA in liver (primers exons 1/2), qPCR; conditions: liver 2 weeks after vector or one month after initiation of CDCA diet
Description: (§1) RNA was extracted from frozen liver samples using the Maxwell® 16 LEV simplyRNA Cells Kit (Promega) following manufacture's recommendations. Two μg of RNA, treated with DNase I, were retro-transcribed using M-MLV retro-transcriptase (Invitrogen™) and random primers (Life Technologies, Thermo). cDNA was amplified and relative gene expression was determined by quantitative polymerase chain reaction (qPCR) using iQ™ SYBR® Green Supermix reagent (Bio-Rad), in CFX96 Touch™ Real-Time PCR Detection System (Bio-Rad). Table 1 contains the sequence of primers specific for the transgene (CYP27A1) and the mouse genes Cyp7a1, Cyp3a11, Cyp27a1 (exons 1/2), Cyp27a1 (exons 8/9) and 36b4 (used as a housekeeping gene).
(§2) ΔCt values using 36b4 mRNA levels as reference gene were corrected with the efficiency of amplification of each pair of primers and multiplied by 1.000 to facilitate graphical representation.
(§3) To this aim, mRNA was extracted from liver samples collected 2 weeks after vector administration, or one month after initiation of the CDCA treatment. First, the inventors studied the impact of the treatments on the transcriptional control of the endogenous Cyp27a1 gene. Since CTX mice present truncation of the gene at exon 8 out of 9 (Rosen H, et al. J. Biol. Chem. 1998; 273:14805-14812), the inventors employed primers targeting exons 1/2 in order to detect the wild type or truncated transcripts.

[3] = system: CTX mice; test: Tolerability: transaminases (ALT), liver histology, body weight, signs of toxicity; conditions: diet 1% of chow weight
Description: Blood was centrifuged at 10.000 g for 5 min at room temperature. Plasma was treated with 20 μM butylhydroxytoluene (Sigma) in a N2 atmosphere to protect from oxidation before storage at −80° C. in opaque tubes. […] Alanine aminotransferase (ALT) was quantified in 40 μl plasma samples using a Cobas C311 automated chemistry analyser (Roche Diagnostics, Basel, Switzerland).

[4] = system: CTX mice; test: Cholestanol and 7αC4 in plasma of treated CTX mice (HPLC-MS/MS)
Excerpt: A mouse strain with truncation of Cyp27a1 exon 8 was obtained from The Jackson Laboratory (Bar Harbor, Me.) (B6.129-Cyp27a1^tm1Et/J, Ref. 009106) (Rosen H, et al. J. Biol. Chem. 1998; 273:14805-14812). Mice homozygous for this mutation (referred hereinafter to as Cyp27a1^−/− or CTX mice) were maintained in a C57BL6/J background by crossing heterozygous individuals. The offspring was genotyped after weaning as indicated by the repository.
Animals were group-housed, up to 6 animals per cage (male or female), provided with food and water ad libitum and maintained with a 12 h light-dark cycle. The average age for initiation of studies was 7 weeks. AAV vectors were administered intravenously by retro-orbital injection in a final volume of 150 μl saline solution. Chenodeoxycholic (CDCA) (Sigma-Aldrich, Ref: C9377-25G) was supplemented in standard chow at 0.1, 0.5 and 1 g CDCA/100 g of chow (0.1, 0.5 and 1.0% CDCA diets, respectively). Blood was collected by submandibular venous puncture using 1.3 ml EDTA tubes (Sarstedt, Nimbrecht, Germany) except for end-time points/terminal procedures, in which cardiac puncture was performed in anesthetized mice. Once animals were euthanized, liver samples were collected for histological and gene expression analyses.
(§4) Blood was centrifuged at 10.000 g for 5 min at room temperature. Plasma was treated with 20 μM butylhydroxytoluene (Sigma) in a N2 atmosphere to protect from oxidation before storage at −80° C. in opaque tubes. Sterol extractions were performed using 100 μl of plasma for quantification of cholestanol and 7αC4 concentrations by HPLC-MS/MS as previously described (Chen W, Chiang J Y L. Gene. 2003; 313:71-82). Bile acid (BA) profiling in serum was carried out after acetonitrile precipitation/extraction (Leníček M, et al. J. Chromatogr. B Anal. Technol. Biomed. Life Sci. 2016; 1033-1034:317-320), using an adaptation (Nytofte N S, et al. J. Med. Genet. 2011; 48:219-225). of a previously described method for BA measurement by HPLC-MS/MS (Ye L, et al. J. Chromatogr. B Anal. Technol. Biomed. Life Sci. 2007; 860:10-17) on a 6420 Triple Quad LC/MS device (Agilent Technologies, Santa Clara, Calif.) (Monte M J, et al. J. Hepatol. 2002; 36:534-542). Alanine aminotransferase (ALT) was quantified in 40 μl plasma samples using a Cobas C311 automated chemistry analyser (Roche Diagnostics, Basel, Switzerland).
This is the only CTX animal model available to date (Rosen et al. J. Biol. Chem. 273 (1998) 14805-14812).
Blood was collected 15 days later for determination of cholestanol and 7aC4 in plasma by HPLC/mass spectrometry. […] Of note, neither elevation of liver transaminases nor any other sign of toxicity was detected in any of the treated animals.

[5] = system: CTX mice; test: Bile acid profile in blood (HPLC-MS/MS)
Description: as §4
In order to determine if gene therapy is able to achieve sustained metabolic correction in CTX mice, the bile acid profile was analyzed in the blood of animals treated with AAV8-EAAT-CYP27A1 for 5 months at 1.5 or 15×10^12 vg/Kg. The optimal dose of CDCA (0.5% chow weight) was maintained for the same period and used for comparison. The inventors observed an increase of primary and secondary bile acids in mice treated with the vector at both doses (FIG. 12), including CDCA. […] This tendency was more evident in the high dose group and included other species such as tauromuricholic acids (TMCA) and taurohyodeoxycholic acid (THDCA). In sharp contrast, treatment with CDCA caused a drastic increase in this bile acid and its derivatives (1000-fold above normal levels), whereas CA and derived species were not restored.

[6] = system: Cyp3a11; conditions: 0.5% diet, one month
Description: as §1, §2, §3

[7] = system: Cyp7a1; conditions: 0.5% diet (therapeutic dose), one month
Description: as §1, §2, §3

[8] = diet 0.1, 0.5 or 1% of chow weight, one month

C[C@H](CCC(=O)O)[C@H]1CC[C@H]2[C@@H]3[C@H](O)C[C@@H]4C[C@H](O)CC[C@]4(C)[C@H]3CC[C@]12C [CDCA, chenodeoxycholic acid]
hepatomegaly (relative liver weight) [1]: only partially | transcription of the endogenous Cyp27a1 gene [2]: moderate inhibition | body weight [3]: weight loss | 7αC4 in plasma [4, 8]: dose-dependent reduction | cholestanol in plasma [4, 8]: dose-dependent reduction | cholestanol levels in plasma ([4]; diet 0.5% or higher, one month): below WT mice; also recorded: very efficient | 7αC4 in plasma ([4]; diet 0.5%, one month, male and female): full normalization; also recorded: not completely normalized | therapeutic dose in the CTX model ([4]; percent of chow weight, dose required for normalization of 7αC4): 0.5% | CA and derived species in blood ([5]; 0.5% chow weight, 5 months): not restored | increase in CDCA and its derivatives in blood above normal levels ([5]; 0.5% chow weight, 5 months): 1000 fold | CDCA in blood ([5]; therapeutic dose (0.5%)): marked accumulation | Cyp3a11 expression in liver [6]: only a slight reduction | Cyp7a1 expression in liver [7]: drastic reduction of Cyp7a1 expression, below physiological levels; also recorded: virtually abrogated
